Where two headings read alike, the source gives them in different places.
Tests used:
[1] = molecular target: Beta Secretase enzyme (BACE) (Homo sapiens, UniProt P56817); experiment: In vitro enzymatic BACE FRET (fluorescence resonance energy transfer) assay; format: biochemical;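 further: fluorescence read after 1 h with 50 nM quenched peptide substrate spanning the BACE cleavage site, in pH 4.2 acetate buffer containing 10% DMSO and nonionic detergent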
[2] = Microsomal stability assay, rat liver microsomes;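 further: rat liver microsomes (0.25 mg/mL) with about 1 µM compound plus 1 mM NADPH, pH 7.4, 37 °C for 30 min, parent left measured by LC-MS/MS against 0 min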
CYP2D6 = CYP2D6 (Homo sapiens, UniProt P10635); experiment: CYP2D6 inhibition assay (bufuralol, pooled human liver microsomes)
Sequence of CYP2D6 (P10635 whole entry): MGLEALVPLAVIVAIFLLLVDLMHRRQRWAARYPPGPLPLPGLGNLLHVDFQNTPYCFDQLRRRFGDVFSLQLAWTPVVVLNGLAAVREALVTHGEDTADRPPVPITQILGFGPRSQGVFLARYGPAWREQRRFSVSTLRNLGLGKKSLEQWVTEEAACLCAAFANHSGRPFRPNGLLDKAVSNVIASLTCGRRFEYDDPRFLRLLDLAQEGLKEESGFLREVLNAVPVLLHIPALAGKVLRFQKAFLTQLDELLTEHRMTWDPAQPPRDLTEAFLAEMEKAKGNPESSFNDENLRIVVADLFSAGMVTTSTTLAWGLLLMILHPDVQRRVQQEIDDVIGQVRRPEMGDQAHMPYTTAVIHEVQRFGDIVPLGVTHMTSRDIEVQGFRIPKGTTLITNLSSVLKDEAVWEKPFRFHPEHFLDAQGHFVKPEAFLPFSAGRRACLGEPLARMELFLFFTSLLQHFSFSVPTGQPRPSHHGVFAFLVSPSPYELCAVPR

[3] = system: Aβ40 in conditioned medium of cells stably expressing Amyloid Precursor Protein (APP); experiment: In vitro BACE cell-based assay (Aβ40 in conditioned medium, sandwich ELISA); conditions: Homo sapiens;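 further: compounds added as a dilution series, secreted peptide quantified by europium time-resolved fluorescence readout, potency fitted from percent of control versus compound concentration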
CYP3A4 (CYP3A) = CYP3A4 (CYP3A) (Homo sapiens, UniProt P08684); experiment: in vitro; conditions: microsomes, pH 7.4;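 further: inhibition of CYP3A-mediated 1-hydroxymidazolam formation after 10 min incubation with NADPH, quantified by HPLC MS relative to metabolite produced without test compound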
Sequence of CYP3A4 (CYP3A) (P08684 2-503): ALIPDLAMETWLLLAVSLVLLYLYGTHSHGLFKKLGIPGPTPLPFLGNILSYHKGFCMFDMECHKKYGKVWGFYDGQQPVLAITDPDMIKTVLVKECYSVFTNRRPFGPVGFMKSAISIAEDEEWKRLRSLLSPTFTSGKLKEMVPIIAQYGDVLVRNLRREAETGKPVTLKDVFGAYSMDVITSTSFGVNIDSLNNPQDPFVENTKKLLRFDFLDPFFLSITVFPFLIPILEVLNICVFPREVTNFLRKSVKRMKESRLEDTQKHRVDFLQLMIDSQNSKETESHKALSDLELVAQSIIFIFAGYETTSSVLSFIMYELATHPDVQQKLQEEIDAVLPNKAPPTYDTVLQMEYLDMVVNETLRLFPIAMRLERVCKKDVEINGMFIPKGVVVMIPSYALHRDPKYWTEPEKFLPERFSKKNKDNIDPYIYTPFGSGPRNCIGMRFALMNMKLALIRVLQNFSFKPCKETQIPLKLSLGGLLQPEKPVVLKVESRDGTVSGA

[4] = Microsomal stability assay, human liver microsomes;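 further: pooled human liver microsomes at 0.25 mg/mL with 1 µM compound and NADPH at 37 °C, pH 7.4, for 30 min, unchanged parent quantified by LC-MS/MS against the 0 min sample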
[5] = Table 2, read-out: BACE1 FRET assay
[6] = 2D6 IC50, CYP enzyme inhibition
[7] = HEK293, Table 2, HEK cells, read-out: HEK cell assay
[8] = read-out: BACE1 FRET assay (IC50)
[9] = HEK293, HEK cells, read-out: HEK cell assay (IC50)
[10] = BACE enzyme assay IC50, read-out: BACE1 FRET assay
[11] = 2D6 IC50 (uM), CYP2D6 inhibition
[12] = HEK293, HEK cell-based assay IC50, read-out: HEK cell assay
[13] = BACE enzyme assay, read-out: BACE1 FRET assay
[14] = 2D6 IC50 (uM), CYP enzyme inhibition
[15] = HEK293, HEK cells, read-out: HEK cell assay
[16] = BACE enzyme assay, IC50's in uM, read-out: BACE1 FRET assay
[17] = HEK293, HEK cell-based assay, IC50's in uM, read-out: HEK cell assay

Sequence of Beta Secretase enzyme (BACE) (P56817 46-501): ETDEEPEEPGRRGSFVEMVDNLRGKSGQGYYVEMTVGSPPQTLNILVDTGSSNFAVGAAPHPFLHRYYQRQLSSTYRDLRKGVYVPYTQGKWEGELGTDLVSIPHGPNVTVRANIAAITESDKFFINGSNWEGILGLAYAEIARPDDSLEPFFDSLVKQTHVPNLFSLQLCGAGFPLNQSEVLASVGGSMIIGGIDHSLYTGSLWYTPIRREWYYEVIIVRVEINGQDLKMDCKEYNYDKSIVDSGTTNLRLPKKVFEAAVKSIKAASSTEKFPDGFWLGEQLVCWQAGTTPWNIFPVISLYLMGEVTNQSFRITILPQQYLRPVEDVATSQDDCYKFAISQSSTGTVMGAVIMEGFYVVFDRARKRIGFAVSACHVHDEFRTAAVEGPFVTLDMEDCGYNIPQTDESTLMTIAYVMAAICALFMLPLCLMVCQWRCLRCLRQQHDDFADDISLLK

Row | SMILES | RLM ([2]; rat liver microsomal data) [µL/min/mg] | IC50 (CYP3A4 (CYP3A)) [nM] | HLM ([4]; human liver microsomal data) [µL/min/mg] | RLM ([2]; rat liver microsomes) [µL/min/mg] | HLM ([4]; human liver microsomes) [µL/min/mg] | IC50 (CYP2D6; [14]) [µM] | further results
1 | COCC(=O)N[C@@H](Cc1ccc2c(c1)OCO2)[C@H](O)CN[C@H]1CC2(CCC2)Oc2nc(F)c(CC(C)(C)C)cc21 [compound 485] | 106 | 100 | 43 |  |  |  | IC50 [1, 5]: 0.12 µM; IC50 (CYP2D6; [6]): 1.7 µM; IC50 [3, 7]: 0.378 µM
2 | CO[C@H](C)C(=O)N[C@@H](Cc1cccc(F)c1)[C@H](O)CN[C@H]1CC2(CCC2)Oc2c(-c3ccncc3)cc(CC(C)(C)C)cc21 [compound 585] |  | 50 |  | 120 | 65.5 |  | IC50 [1, 8]: 0.016 µM; IC50 (CYP2D6; 2D6 IC50, CYP2D6 inhibition): 0.75 µM; IC50 [3, 9]: 0.012 µM
3 | CC(C)(C)Cc1cnc2c(c1)[C@@H](NC[C@@H](O)[C@H](Cc1ccc(F)cc1)NC(=O)C(C)(F)F)CC1(CCC1)O2 [compound 477] | 337 | 300 | 118 |  |  |  | IC50 [1, 5]: 0.012 µM; IC50 (CYP2D6; [6]): 3.2 µM; IC50 [3, 7]: 0.104 µM
4 | CO[C@H](C)C(=O)N[C@@H](Cc1cc(F)cc(-c2nccs2)c1)[C@H](O)CN[C@H]1CC2(CCC2)Oc2cnc(CC(C)(C)F)cc21 [compound 721, (2R)-N-((1S,2R)-3-(((4′S)-6′-(2-fluoro-2-methylpropyl)-3′,4′-dihydrospiro[cyclobutane-1,2′-pyrano[2,3-c]pyridin]-4′-yl)amino)-1-(3-fluoro-5-(1,3-thiazol-2-yl)benzyl)-2-hydroxypropyl)-2-methoxypropanamide] |  | 300 |  | 152 | 111 |  | IC50 [1, 10]: 0.049 µM; IC50 (CYP2D6; [11]): 0.5 µM; IC50 [3, 12]: 0.118 µM
5 | COCC(=O)N[C@@H](Cc1cc(F)cc(F)c1)[C@H](O)CN[C@H]1CC2(CCC2)Oc2c(-c3nccs3)cc(CC(C)(C)C)cc21 [compound 463] | 662 | 1100 | 682 |  |  |  | IC50 [1, 5]: 0.003 µM; IC50 (CYP2D6; [6]): 7.2 µM; IC50 [3, 7]: 0.048 µM
6 | COCC(=O)N[C@@H](Cc1cc(F)cc(F)c1)[C@H](O)CN[C@H]1CC2(CCC2)Oc2c1cc(CC(C)(C)C)nc2-n1ccnc1 [compound 494] | 63 | 200 | 30 |  |  | 1.2 | IC50 [1, 13]: 0.02 µM; IC50 [3, 15]: 0.072 µM
7 | COCC(=O)N[C@@H](Cc1ccc(F)cc1)[C@H](O)CN[C@H]1CC(C)(C)Oc2ncc(CC(C)(C)C)cc21 [compound 663] |  | 1700 |  | 133 | 163 |  | IC50 [1, 8]: 0.013 µM; IC50 (CYP2D6; 2D6 IC50, CYP2D6 inhibition): 10.5 µM; IC50 [3, 9]: 0.021 µM
8 | COCC(=O)N[C@@H](Cc1cccc(F)c1)[C@H](O)CN[C@H]1CC2(CCC2)Oc2c(Br)cc(CC(C)C)cc21 [compound 514] | 560 | 1500 | 682 |  |  | 6 | IC50 [1, 13]: 0.003 µM; IC50 [3, 15]: 0.128 µM
9 | CO[C@H](C)C(=O)N[C@@H](Cc1ccc2c(c1)OCO2)[C@H](O)CN[C@H]1CC2(CCC2)Oc2cnc(CC(C)C)cc21 [compound 666] |  | ≤ 30 |  | 228 | 140 |  | IC50 [1, 8]: 0.124 µM; IC50 (CYP2D6; 2D6 IC50, CYP2D6 inhibition): 2.4 µM; IC50 [3, 9]: 0.175 µM
10 | CC#Cc1cccc(C[C@H](NC(=O)COC)[C@H](O)CN[C@H]2CC3(CCC3)Oc3ncc(CC(C)C)cc32)c1 [compound 802] | 191 | 100 | 60.5 |  |  | 2.15 | IC50 [1, 16]: 0.005 µM; IC50 [3, 17]: 0.032 µM
11 | COCC(=O)N[C@@H](Cc1cccc(-c2nccs2)c1)[C@H](O)CN[C@H]1CC2(CCC2)Oc2ncc(CC(C)(C)F)cc21 [compound 813, N-((1S,2R)-3-(((4′S)-6′-(2-fluoro-2-methylpropyl)-3′,4′-dihydrospiro[cyclobutane-1,2′-pyrano[2,3-b]pyridin]-4′-yl)amino)-2-hydroxy-1-(3-(1,3-thiazol-2-yl)benzyl)propyl)-2-methoxyacetamide] | 27 | 500 | 32 |  |  | 1.1 | IC50 [1, 16]: 0.006 µM; IC50 [3, 17]: 0.014 µM
12 | CN1CCO[C@H](C(=O)N[C@@H](Cc2ccc(F)cc2)[C@H](O)CN[C@H]2CC3(CCC3)Oc3ncc(CC(C)(C)C)cc32)C1 [compound 744] |  | 900 |  | 266 | 333 |  | IC50 [1, 10]: 0.372 µM; IC50 (CYP2D6; [11]): 11.2 µM; IC50 [3, 12]: 0.075 µM
13 | CO[C@H](C)C(=O)N[C@@H](Cc1ccncc1)[C@H](O)CN[C@H]1CC2(CCC2)Oc2ncc(CC(C)(C)C)cc21 [compound 534] | 113 | 500 | 178 |  |  | 3.6 | IC50 [1, 13]: 0.023 µM; IC50 [3, 15]: 0.014 µM
14 | CC(C)(C)Cc1cnc2c(c1)[C@@H](NC[C@@H](O)[C@H](Cc1ccc(F)cc1)NC(=O)[C@H]1CN(Cc3ccccc3)CCO1)CC1(CCC1)O2 [compound 717] |  | 200 |  | 298 | 775 |  | IC50 [1, 10]: 0.013 µM; IC50 (CYP2D6; [11]): 3.6 µM; IC50 [3, 12]: 0.011 µM
15 | CO[C@H](C)C(=O)N[C@@H](Cc1cccc(C#N)c1)[C@H](O)CN[C@H]1CC2(CC(F)(F)C2)Oc2ncc(CC(C)(C)C)cc21 [compound 471] | 536 | 1100 | 569 |  |  |  | IC50 [1, 5]: 0.004 µM; IC50 (CYP2D6; [6]): 10.3 µM; IC50 [3, 7]: 0.012 µM
16 | CCOCC(=O)N[C@@H](Cc1ccc2c(c1)OCO2)[C@H](O)CN[C@H]1CC2(CCC2)Oc2ncc(CC(C)(C)C)cc21 [Example 772, N-((1S,2R)-1-(1,3-benzodioxol-5-ylmethyl)-3-(((4′S)-6′-(2,2-dimethylpropyl)-3′,4′-dihydrospiro[cyclobutane-1,2′-pyrano[2,3-b]pyridin]-4′-yl)amino)-2-hydroxypropyl)-2-ethoxyacetamide] | 112 | 200 | 28 |  |  | 1.1 | IC50 [1, 16]: 0.021 µM; IC50 [3, 17]: 0.042 µM
17 | Cc1cccc(CN2CCO[C@H](C(=O)N[C@@H](Cc3ccc(F)cc3)[C@H](O)CN[C@H]3CC4(CCC4)Oc4ncc(CC(C)(C)C)cc43)C2)c1 [compound 691] |  | 200 |  | 426 | 543 |  | IC50 [1, 10]: 0.078 µM; IC50 (CYP2D6; [11]): 3 µM; IC50 [3, 12]: 0.104 µM
18 | CC(=O)N[C@@H](Cc1cccc(F)c1)[C@H](O)CN[C@H]1CC2(CCC2)Oc2c1cc(CC(C)(C)C)nc2-c1ccncc1 [compound 532] | 91 | 200 | 40 |  |  | 2.6 | IC50 [1, 13]: 0.012 µM; IC50 [3, 15]: 0.022 µM
19 | COCC(=O)N[C@@H](Cc1cncs1)[C@H](O)CN[C@H]1CC2(CCC2)Oc2c(-c3ccncc3)cc(CC(C)(C)C)cc21 [compound 633] |  | 100 |  | 153 | 53 |  | IC50 [1, 8]: 0.021 µM; IC50 (CYP2D6; 2D6 IC50, CYP2D6 inhibition): 3 µM; IC50 [3, 9]: 0.011 µM
20 | CO[C@H](C)C(=O)N[C@@H](Cc1ccc2c(c1)OCO2)[C@H](O)CN[C@H]1CC(C)(C)Oc2ncc(CC(C)(C)C)cc21 [compound 674] |  | 100 |  | 128 | 26 |  | IC50 [1, 10]: 0.033 µM; IC50 (CYP2D6; [11]): 10.5 µM; IC50 [3, 12]: 0.037 µM

Reference: patent US8163909B2, “Substituted hydroxyethyl amine compounds as beta-secretase modulators and methods of use” (Amgen Inc., priority 2007, dated 2012)
